Reference: PMC11766601, “A Comparative Study of the In Vitro Intestinal Permeability of Pinnatoxins and Portimine” (Marine Drugs, 2025)

Assays:
[1] = parameters: method as in PMID 32246951; details: Anses 2020; cited from earlier work
Caco-2 cells = experiment: Trans-epithelial electrical resistance (TEER) of differentiated Caco-2 monolayers; assay type: cell-based, human; details: 24 h
Method: (§1) All experiments were performed with human intestinal Caco-2 cells (ATCC-HTB37), acquired from the American Type Culture Collection (ATCC; Manassas, VA, USA). Caco-2 cells originate from a colorectal adenocarcinoma, but upon reaching confluence, they differentiate and express the characteristics of enterocytes. The cells were cultivated in minimum essential medium containing 5.5 mM D-glucose, Earle’s salts, and 2 mM L-alanyl-glutamine (MEM GlutaMAX™, Gibco, Bromont, QC, Canada) supplemented with 10% fetal bovine serum (FBS, Gibco), 1% non-essential amino acids, 50 U/mL penicillin, and 50 μg/mL streptomycin (Gibco) under humidified conditions (37 °C, 5% CO2, 95% humidity). The cells were grown for 3–4 days up to 80% confluence before trypsinization and sub-culture. For the experiments, the cells were seeded in TRANSWELL® plates (12 wells, 0.4 µm pore size; Costar®, Corning Incorporated, Corning, NY, USA) at a density of 90,000 cells/cm^2. Prior to toxin treatment, highly differentiated Caco-2 cells were obtained after 24–26 days of culture, with medium renewal every 2–3 days. Passage numbers between 30 and 40 were used for experiments.
(§2) PnTX-A, PnTX-G, PnTX-E, PnTX-H, and portimine stock solutions were prepared in methanol, while PnTX-F was provided in acetonitrile/acetic acid (50%/0.1%). For each toxin, the cells were incubated at 8, 16, and 32 ng/mL (diluted in HBSS) for 2 h, 6 h, and 24 h, with a final volume of 1.5% solvent. The controls were incubated with the cell culture medium containing the respective solvent of the toxin at 1.5%. Each experiment included three biological replicates. Two to three independent experiments were conducted.
Epithelial integrity was examined by measuring the TEER between the apical and basolateral compartments. After rinsing with a HBSS solution (HBSS, HEPES 5 mM, pH 7.4), the Caco-2 monolayers were equilibrated for 30 min at 37 °C with 300 and 1000 µL HBSS in the apical (A) and basolateral (B) chambers, respectively. Then, the content of the apical compartment was replaced with 500 µL HBSS-containing toxins. TEER was quantified with a Millipore Millicell Electrical Resistance System (ERS Millipore, EMD Millipore Corporation, Burlington, MA, USA). The mean value of two measurements per well before and after the treatment was calculated and multiplied by the surface of the insert to obtain Ω × cm^2. After blank subtraction, the results were presented as a percentage of the solvent control.

Caco-2 cell monolayers [2] = experiment: Toxin crossing and apparent permeability across Caco-2 cell monolayers (A to B), LC-MS/MS; assay type: in vitro ADME, human; details: for % theoretical amount of toxin crossing the Caco-2 cell monolayers: relative to theoretical loaded concentration; for Percentage of toxin crossing the Caco-2 cell monolayers: A to B, relative to quantified T0; for permeability / oral bioavailability class from Caco-2 Papp: threshold Papp > 1.5 × 10^−6 cm·s^−1 = highly penetrative
Method: as §1, §2
(§3) The apical and basolateral compartments were collected after 2, 6, and 24 h treatment time. Parts of the solutions that were used to load the apical compartments were also stored (T0) to take into account the real concentration and not the estimated concentration. All the samples were stored at −20 °C until LC/MS analysis.
(§4) The LC-MS/MS analysis of toxins was implemented for the quantitative analysis of toxins. The LC system was an Agilent 1200 (Agilent Technologies, Santa Clara, CA, USA). The chromatographic separation was performed using a column Hypersil GOLD® C18 50 mm × 2.1 mm, 1.9 μm (Thermo Scientific, Waltham, MA, USA). Eluent A consisted of water, and eluent B of acetonitrile/water at a ratio of 95:5 (v/v), with both eluents containing 50 mM formic acid and 2 mM ammonium formate. The LC flow rate was 0.4 mL/min, and the gradient was programmed as follows: 10% B held for 0.5 min, 10–90% B in 5 min, 90% B held for 1 min, 90–10% B in 0.5 min, and 10% B held for 3.0 min, for a total run time of 10 min. The injection volume was 5 μL, while the column temperature was maintained at 40 °C. The column effluent was transferred via a divert valve (Valco Instruments Co., Inc., Houston, TX, USA), either to the mass spectrometer (between 1.7 and 5.5 min) or to waste.
(§5) The detection system was constructed with an API 4000 triple quadrupole mass spectrometer (Sciex, Framingham, MA, USA) equipped with an ElectroSpray Ionization (ESI) source (Turbo V). The mass spectrometer was operated in positive ESI mode. The source temperature was set at 600 °C, and the spray voltage was 5500 V. Air was used as a nebulizer gas and an auxiliary gas, with a gas pressure of 40 and 60 psi, respectively. Meanwhile, the curtain gas and collision gas were nitrogen, with a gas pressure of 15 and 8 psi, respectively. The mass spectrometer was operated in multiple reaction monitoring mode (MRM). One transition was used for quantification (Q) and another as a qualifier transition (q). A mass resolution of 0.7 Da full width at half maximum (FWHD) was set on the first (Q1) and the third (Q3) quadrupoles. Instrument control and data were handled with Analyst software version 1.5.1 (Sciex, Framingham, MA, USA).
(§6) The portimine and PnTX retention times varied between 2.7 and 4.4 min (Figure S1). […]

[3] = as above; assay type: in vitro ADME, human; details: human, Caco-2, A to B; for Papp at 2 h, 8 ng/mL / Papp at 6 h, 8 ng/mL: loaded 8 ng/mL; for Papp at 2 h, 16 ng/mL / Papp at 6 h, 16 ng/mL: loaded 16 ng/mL; for Papp at 2 h, 32 ng/mL / Papp at 6 h, 32 ng/mL: loaded 32 ng/mL
Method: as §1, §2, §3, §4, §5, §6

Caco-2 cell monolayers [4] = experiment: Lucifer Yellow paracellular permeability (barrier integrity); assay type: cell-based, human; details: 24 h
Method: as §1, §2
For the assay, both compartments of the insert system were washed with Hank’s balanced salt solution (HBSS). Then, 0.5 mL of 0.1 mg/mL Lucifer Yellow in HBSS buffer and 1 mL of pure HBSS buffer were added to the apical and basolateral compartments, respectively. After a 2 h incubation at 37 °C, the media of the basolateral compartments were collected and the fluorescence of each compartment was measured in triplicate (excitation: 405 nm, emission: 520 nm) with a FLUOstar Optima microplate reader (BMG Labtech, Ortenberg, Germany). After subtraction of the blank (HBSS), the permeability of the […] was calculated against the value obtained for pure LY and reported as % permeability.

rats = system: rats; parameters: method as in PMID 34380275; details: six hours after gavage of rats with [H^3] 100 µg/kg; liver, kidney, spleen, brain regions; cited from earlier work
mice [5] = details: cited from earlier work
cancer cells = details: observed by several methods; cited from earlier work
mice [6] = details: cited from earlier work; remark: listed apart in the source

SMILES	% theoretical amount of toxin crossing the Caco-2 cell monolayers (Caco-2 cell monolayers [2]; 2 h, 8 ng/mL)	% theoretical amount of toxin crossing the Caco-2 cell monolayers (Caco-2 cell monolayers [2]; 2 h, 16 ng/mL)	% theoretical amount of toxin crossing the Caco-2 cell monolayers (Caco-2 cell monolayers [2]; 2 h, 32 ng/mL)	Percentage of toxin crossing the Caco-2 cell monolayers (Caco-2 cell monolayers [2]; 2 h, loaded 8 ng/mL)	Percentage of toxin crossing the Caco-2 cell monolayers (Caco-2 cell monolayers [2]; 2 h, loaded 16 ng/mL)	Percentage of toxin crossing the Caco-2 cell monolayers (Caco-2 cell monolayers [2]; 2 h, loaded 32 ng/mL)	% theoretical amount of toxin crossing the Caco-2 cell monolayers (Caco-2 cell monolayers [2]; 6 h, 8 ng/mL)	% theoretical amount of toxin crossing the Caco-2 cell monolayers (Caco-2 cell monolayers [2]; 6 h, 16 ng/mL)	% theoretical amount of toxin crossing the Caco-2 cell monolayers (Caco-2 cell monolayers [2]; 6 h, 32 ng/mL)	Percentage of toxin crossing the Caco-2 cell monolayers (Caco-2 cell monolayers [2]; 6 h, loaded 8 ng/mL)	Percentage of toxin crossing the Caco-2 cell monolayers (Caco-2 cell monolayers [2]; 6 h, loaded 16 ng/mL)	Percentage of toxin crossing the Caco-2 cell monolayers (Caco-2 cell monolayers [2]; 6 h, loaded 32 ng/mL)	permeability / oral bioavailability class from Caco-2 Papp (Caco-2 cell monolayers [2])	Papp at 2 h, 8 ng/mL [3]	Papp at 2 h, 16 ng/mL [3]	Papp at 2 h, 32 ng/mL [3]	Papp at 6 h, 8 ng/mL [3]	Papp at 6 h, 16 ng/mL [3]	Papp at 6 h, 32 ng/mL [3]	further results
C=CC1=CC2C3OC4(CC5CCCC6(CCC7(OC(CCC7(C)O)CC(=C)CCCC7=NCC(C)C(C)CC72CC1)O6)O5)CC(C)C(O)C3O4 (stereo not shown) [PnTX-G, Pinnatoxin G]	6.83 ± 1.04%	8.37 ± 1.19%	8.64 ± 0.53%	15.62 ± 5.24%	23.32 ± 4.36%	23.07 ± 5.56%	15.17 ± 0.58%	13.25 ± 1.30%	16.58 ± 2.86%	34.43 ± 9.39%	36.83 ± 5.26%	43.41 ± 6.15%	high oral bioavailability	9.69 ± 3.25 ×10⁻⁶ cm/s	14.4 ± 2.7 ×10⁻⁶ cm/s	14.3 ± 3.45 ×10⁻⁶ cm/s	21.4 ± 5.82 ×10⁻⁶ cm/s	22.8 ± 3.26 ×10⁻⁶ cm/s	26.9 ± 3.82 ×10⁻⁶ cm/s	provisional acute health-based guidance value [1]: 0.13 μg PnTX-G/kg body weight per day; effect on TEER (Caco-2 cells; 16 and 32 ng/mL): slight, but non-significant, decrease; effect on passage of LY (Caco-2 cell monolayers [4]): lower effect; tissue distribution of radioactivity (rats): radioactivity was distributed in the peripheral organs; effect on the small intestine (mice [5]; mice orally treated with 300 μg/kg and above, villous atrophy, focal degeneration of epithelial cells): alteration of the small intestine; onset of toxicity after oral exposure (mice [5]; oral exposure to a certain dose): within one hour
C=CC1=CC2C3O[C@]4(CCC(O4)[C@@H](C)C[C@@H](O)C3=O)C[C@H](O)C3=NCC[C@@]32CC1 (stereo partly shown) [Portimine, portimine]	8.50 ± 1.25%	13.33 ± 1.69%	20.73 ± 7.28%	9.23 ± 1.46%	15.48 ± 0.89%	23.25 ± 6.88%	22.33 ± 3.36%	26.08 ± 3.00%	34.60 ± 4.41%	24.23 ± 3.69%	30.63 ± 5.62%	39.45 ± 4.86%	high oral bioavailability	5.72 ± 0.91 ×10⁻⁶ cm/s	9.6 ± 0.55 ×10⁻⁶ cm/s	14.4 ± 5.27 ×10⁻⁶ cm/s	15 ± 2.29 ×10⁻⁶ cm/s	19 ± 349 ×10⁻⁶ cm/s	24.5 ± 3.01 ×10⁻⁶ cm/s	apoptosis induction (cancer cells): induces apoptosis; TEER (Caco-2 cells; all of the concentrations (8, 16, 32 ng/mL)): 10.02 ± 0.96 % of control value; mechanism of transport from the apical to the basolateral compartment (Caco-2 cell monolayers [2]; inferred from concentration-dependent Papp): passive diffusion; acute intraperitoneal toxicity (mice [6]): not very toxic; effect on LY permeability (Caco-2 cell monolayers [4]; all concentrations (8, 16, 32 ng/mL)): significant increase
